{"source": "patent US20260086093A1", "about": "“METHODS TO DETERMINE DRUG TARGET RESIDENCE TIME AND TO SELECT BEST DRUG-TARGET CANDIDATES” (BiognoSYS AG, priority 2022, published 2026)", "key": {"[1]": {"biological_target": "T1, phoshatase PP2A-alpha (PPP2CA) (Homo sapiens, UniProt P67775)", "T1 construct": "endogenous in cells; host or cells: native cellular proteome", "T1 sequence (P67775 whole entry)": "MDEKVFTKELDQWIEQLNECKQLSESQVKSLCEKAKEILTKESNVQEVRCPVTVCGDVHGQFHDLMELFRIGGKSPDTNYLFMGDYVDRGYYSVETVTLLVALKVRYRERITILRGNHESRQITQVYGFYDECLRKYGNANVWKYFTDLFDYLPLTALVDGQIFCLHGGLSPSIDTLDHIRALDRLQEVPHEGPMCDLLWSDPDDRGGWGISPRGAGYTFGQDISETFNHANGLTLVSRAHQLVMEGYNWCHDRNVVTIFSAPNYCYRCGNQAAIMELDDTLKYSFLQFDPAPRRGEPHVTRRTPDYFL", "experiment": "Jump-dilution LiP-MS residence-time pattern, Calyculin A on PPP2CA", "assay_type": "binding", "settings": "0 to 60 minutes after 100-fold jump-dilution; FIG. 7", "experimental": "Native proteomes were incubated with the ligand of interested (Staurosporine or Calyculin A)—lower panel—or with the solvent (DMSO)—upper panel. The sample treated with DMSO serves as negative control, and it is used to confirm that the observed effect is derived from the interaction of the Ligand with its Targets. The proteomes were then diluted by a factor of 100 (jump-dilution method), and aliquots with a sample of the ligand-bound proteome were extracted at distinct time points after dilution. […] The samples incubated for the distinct times were then subjected to a limited proteolysis step using LiP-MS or DarkLiP-MS, and measured by mass spectrometry. […]\nCalyculin A is a natural compound that acts as an potent and irreversible inhibitor of serine/threonine protein phosphatases. To show the application of the LiP-MS technology for the measurement of irreversible drug-residence times, the experimental workflow described in FIGS. 3, 4 and 5 was applied to the phosphatase inhibitor Calyculin A. Native cellular proteomes were treated with Calyculin A or DMSO (vehicle) in duplicates, diluted 100 fold and analyzed by LiP-MS. […]"}, "[2]": {"biological_target": "T2, Kynureninase (KYNU) (Homo sapiens, UniProt Q16719)", "T2 construct": "endogenous in cells; host or cells: native cellular proteome", "T2 sequence (Q16719 1-465)": "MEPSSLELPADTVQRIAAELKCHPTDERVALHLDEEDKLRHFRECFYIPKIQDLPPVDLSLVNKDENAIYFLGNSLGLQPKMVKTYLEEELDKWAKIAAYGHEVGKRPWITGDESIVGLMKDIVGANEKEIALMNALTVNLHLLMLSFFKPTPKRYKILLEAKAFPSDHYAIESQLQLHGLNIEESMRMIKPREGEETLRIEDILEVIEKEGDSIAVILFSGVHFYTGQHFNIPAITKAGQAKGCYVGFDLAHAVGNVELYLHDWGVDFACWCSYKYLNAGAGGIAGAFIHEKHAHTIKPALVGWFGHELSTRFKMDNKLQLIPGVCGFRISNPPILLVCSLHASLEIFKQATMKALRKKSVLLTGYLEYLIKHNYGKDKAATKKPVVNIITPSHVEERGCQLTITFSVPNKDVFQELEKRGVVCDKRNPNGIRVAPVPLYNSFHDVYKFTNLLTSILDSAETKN", "experiment": "Jump-dilution LiP-MS, Calyculin A on non-target KYNU", "assay_type": "binding", "settings": "entire length of the experiment after 100-fold jump-dilution; FIG. 8", "experimental": "(§1) Native proteomes were incubated with the ligand of interested (Staurosporine or Calyculin A)—lower panel—or with the solvent (DMSO)—upper panel. The sample treated with DMSO serves as negative control, and it is used to confirm that the observed effect is derived from the interaction of the Ligand with its Targets. The proteomes were then diluted by a factor of 100 (jump-dilution method), and aliquots with a sample of the ligand-bound proteome were extracted at distinct time points after dilution. Due to the reduction of the concentration of the Ligand in solution (as consequence to the jump-dilution), new binding events between Ligand and Target are very unlikely, and consequently it is expected that the proportion of Ligand-bound protein Target decreases over time, as the complex Ligand-Target dissociates. The samples incubated for the distinct times were then subjected to a limited proteolysis step using LiP-MS or DarkLiP-MS, and measured by mass spectrometry. In the right intensity (I) as a function of retention time (RT is given.\n(§2) For both LiP-MS and DarkLiP-MS, the limited proteolysis is performed with the unspecific protease thermolysin. After incubation for a short amount of time, the reaction is stopped by addition of EDTA.\nFor processing of LiP-MS experiments (1), the samples are dried after stopping the reaction. […]"}, "[3]": {"test_system": "CDK1, CDK2, CDK4, CDK6, CDK7 and CDK9", "settings": "towards CDK1, CDK2, CDK4, CDK6, CDK7 and CDK9; cited from earlier work"}, "[4]": {"biological_target": "T3, Dual specificity mitogen-activated protein kinase kinase 3 (MP2K3) (Homo sapiens, UniProt P46734)", "T3 construct": "endogenous in cells; host or cells: native cellular proteome", "T3 sequence (P46734 1-347)": "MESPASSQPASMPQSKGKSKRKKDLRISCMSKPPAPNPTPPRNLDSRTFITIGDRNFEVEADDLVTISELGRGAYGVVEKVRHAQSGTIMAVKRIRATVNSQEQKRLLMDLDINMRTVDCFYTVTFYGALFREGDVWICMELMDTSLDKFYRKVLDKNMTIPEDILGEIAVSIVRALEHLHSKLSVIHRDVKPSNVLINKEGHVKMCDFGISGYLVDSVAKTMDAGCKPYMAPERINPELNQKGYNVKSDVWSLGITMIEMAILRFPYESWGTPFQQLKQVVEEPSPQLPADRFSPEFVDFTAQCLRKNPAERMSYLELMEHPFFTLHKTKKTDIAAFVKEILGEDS", "experiment": "Jump-dilution LiP-MS residence time, complex MP2K3-Staurosporine", "assay_type": "binding", "settings": "for Half-life: time to 50% decrease of relative peptide abundance, 4-parameter logistic fit, 100-fold jump dilution, native cellular proteome", "experimental": "as §1, §2\nFor processing of LiP-MS experiments (1), the samples are dried after stopping the reaction. After re-solubilization with urea, the partially-fragmented proteome is reduced and alkylated, diluted with ammonium bicarbonate, and treated with LysC and Trypsin to generate a fully fragmented peptide sample. This peptide sample is acidified with TFA and cleaned with a C18 resin before analysis by mass spectrometry.\nStaurosporine is a natural compound that mimics the biological molecule ATP and acts as a promiscuous kinase inhibitor. Due to the similarities to ATP, Staurosporine has short residence times towards its protein Targets. To show the application of the LiP-MS technology for the measurement of short drug-residence times, the experimental workflow described in FIGS. 3, 4 and 5 was applied to the promiscuous kinase inhibitor Staurosporine. Native cellular proteomes were treated with Staurosporine or DMSO (vehicle) in duplicates, diluted 100 fold and analyzed by LiP-MS. The results of Example 1 are illustrated in FIG. 6. The graphs of FIG. 6 show the average abundances (y-axis) of four different peptides Peptide 1-Peptide 4 of the kinase MP2K3 measured between 0 and 60 minutes after jump-dilution (x-axis). The peptides Peptide 1-Peptide 4 are described in the database PeptideAtlas with the accessions PAp01457867, Pap00639637, PAp02016489 and PAp00503812. The graphs show a difference in peptide abundance between Staurosporine and DMSO, which is larger at earlier time points after dilution (between 0 and 30 min). The difference in abundance between Staurosporine-treated samples and DMSO decreases has time progresses.\nAccordingly to equation 1, the residence-time of Staurosporine towards MP2K3 can be determined based on the half-life of the complex MP2K3-Staurosporine. Since the half-life of the complex MP2K3-Staurosporine corresponds to the interval of time that led to a reduction of peptide abundance by 50%, we fit the values of peptide abundance to a 4-parameter logistic curve. Thereby we obtained the time that corresponded to a decrease of relative peptide abundance by 50% (Table 2). Since each peptide generates a slightly different value for the half-life of the complex due experimental variability, we calculated the median of the 4 values obtained based on the four graphs of FIG. 6."}}, "data": [{"molecule": "COC[C@@H]([C@H](O)[C@H](O)C(=O)NCC[C@H](C)c1nc(/C=C/C[C@@H]2O[C@]3(C[C@@H](O)[C@@H]2C)O[C@H]([C@H](C[C@H](O)[C@H](C)[C@H](O)[C@H](C)/C=C(C)/C(C)=C/C=C/C(C)=C\\C#N)OC)[C@H](OP(=O)(O)O)C3(C)C)co1)N(C)C", "note": "[Calyculin A]", "values": [{"measurement": "Structural alteration of PPP2CA (Peptide 5 abundance vs DMSO) over time after jump-dilution", "setting": "[1]", "value": "did not disappear over time"}, {"measurement": "Binding / structural alteration of KYNU (Peptide 6 intensity vs DMSO)", "setting": "[2]", "value": "did not bind to KYNU"}]}, {"molecule": "C[C@@H](O)[C@@H](C)Oc1nc(Nc2ccc(S(=N)(=O)C3CC3)cc2)ncc1C(F)(F)F", "note": "(stereo partly drawn) [Roniclib]", "values": [{"measurement": "IC50 values", "setting": "[3]", "value": "nanomolar range"}]}, {"molecule": "CN[C@@H]1C[C@H]2O[C@@](C)([C@@H]1OC)n1c3ccccc3c3c4c(c5c6ccccc6n2c5c31)C(=O)NC4", "note": "[Staurosporine]", "values": [{"measurement": "Structural alteration of MP2K3 (peptide abundance vs DMSO) over time after jump-dilution", "setting": "[4]; 0 to 60 minutes after 100-fold jump-dilution, FIG. 6", "value": "structural alteration disappeared over time"}, {"measurement": "Half-life", "setting": "[4]; Peptide 1 of MP2K3", "value": 25, "unit": "min"}, {"measurement": "Half-life", "setting": "[4]; Peptide 2 of MP2K3", "value": 61, "unit": "min"}, {"measurement": "Half-life", "setting": "[4]; Peptide 3 of MP2K3", "value": 129, "unit": "min"}, {"measurement": "Half-life", "setting": "[4]; Peptide 4 of MP2K3", "value": 29, "unit": "min"}, {"measurement": "Median half-life", "setting": "[4]; median of the 4 peptide half-lives", "value": 45, "unit": "min"}]}]}
